Test results published in patent publication US20240294541A1, “COMPOUNDS CONSTITUTING C20-MODIFIED SALINOMYCIN DERIVATIVES, A METHOD FOR OBTAINING THE SAME, A COMPOSITION CONTAINING THE SAME AND A USE OF SAID COMPOUNDS” (FILECLO SPOLKA Z OGRANICZONA ODPOWIEDZIALNOSCIA, priority 2021, published 2024).

Columns and labels:
Assay type in all cases: cell-based
[1] = tested on: NCI-H358 (human lung cancer); assay: cells; conditions: Table 4; for IC50: NCI-H358 human lung cancer cells, read-out: IC50 (nM) NCI-H358; for SI NCI-H358: selectivity coefficient vs normal BALB/3T3 fibroblasts
Hs294T (human melanoma) = assay: cells; conditions: Table 4; for IC50: Hs 294T, Hs294T human melanoma cells, read-out: IC50 (nM) Hs294T; for SI Hs294T: selectivity coefficient vs normal BALB/3T3 fibroblasts
[2] = tested on: SNU-16 (human gastric cancer); assay: cells; conditions: Table 4; for IC50: SNU-16 human gastric cancer cells, read-out: IC50 (nM) SNU-16; for SI SNU-16: selectivity coefficient vs normal BALB/3T3 fibroblasts
[3] = tested on: MIA PaCa-2 (human pancreatic cancer); assay: cells; conditions: Table 4; for IC50: MIA PaCa-2 human pancreatic cancer cells, read-out: IC50 (nM) MIA PaCa-2; for SI MIA PaCa-2: selectivity coefficient vs normal BALB/3T3 fibroblasts
[4] = tested on: PLC/PRF/5 (human liver cancer); assay: cells; conditions: Table 4; for IC50: PLC/PRF/5 human liver cancer cells, read-out: IC50 (nM) PLC/PRF/5; for SI PLC/PRF/5: selectivity coefficient vs normal BALB/3T3 fibroblasts
[5] = tested on: MV-4-11 (human biphenotypic leukaemia); assay: In vitro cytotoxicity, MTT assay, MV-4-11; conditions: for IC50: Homo sapiens, MV4-11, read-out: IC50 (nM) MV4-11
[6] = tested on: BALB/3T3 (normal mouse fibroblasts); assay: In vitro cytotoxicity, SRB assay, normal BALB/3T3 fibroblasts; conditions: Table 4; BALB/3T3 normal mouse fibroblasts; read-out: IC50 (nM) BALB3T3 normal cells
[7] = tested on: A2780Cis (cisplatin-resistant human ovarian cancer); assay: In vitro cytotoxicity, SRB assay, A2780Cis; conditions: for IC50: Homo sapiens, A2780cis, read-out: IC50 (nM) A2780Cis

Structure (SMILES) | IC50 [1] [nM] | IC50 (Hs294T (human melanoma)) [nM] | IC50 [2] [nM] | IC50 [3] [nM] | IC50 [4] [nM] | SI NCI-H358 [1] | SI Hs294T (Hs294T (human melanoma)) | SI SNU-16 [2] | SI MIA PaCa-2 [3] | SI MV4-11 [5] | IC50 [5] [nM] | SI PLC/PRF/5 [4] | IC50 [6] [nM] | SI A2780Cis [7] | IC50 [7] [nM]
CC[C@@H](C(=O)[C@@H](C)[C@@H](O)[C@H](C)[C@@H]1O[C@@H]([C@@H](CC)C(=O)O)CC[C@@H]1C)[C@H]1O[C@]2(C=C[C@@H](NC(=O)Oc3ccccc3)[C@]3(CC[C@@](C)([C@H]4CC[C@](O)(CC)[C@H](C)O4)O3)O2)[C@H](C)C[C@@H]1C [FLC-00429-1•Na] | 76.1 | 115 | 168 | 39.8 | 27 |  |  |  |  |  |  |  |  |  | 
CC[C@@H](C(=O)[C@@H](C)[C@@H](O)[C@H](C)[C@@H]1O[C@@H]([C@@H](CC)C(=O)O)CC[C@@H]1C)[C@H]1O[C@]2(C=C[C@@H](NC(=O)OCCOCCCl)[C@]3(CC[C@@](C)([C@H]4CC[C@](O)(CC)[C@H](C)O4)O3)O2)[C@H](C)C[C@@H]1C [FLC-00454-1•Na] | 434 | 1040 | 103 | 45.2 | 63.1 | 0.72 | 0.3 | 3.0 | 6.9 | 17.8 | 17.6 | 5.0 | 313 | 58.9 | 5.32
CC[C@@H](C(=O)[C@@H](C)[C@@H](O)[C@H](C)[C@@H]1O[C@@H]([C@@H](CC)C(=O)O)CC[C@@H]1C)[C@H]1O[C@]2(C=C[C@@H](NC(=O)Nc3ccc(Cl)c(Cl)c3)[C@]3(CC[C@@](C)([C@H]4CC[C@](O)(CC)[C@H](C)O4)O3)O2)[C@H](C)C[C@@H]1C [FLC-00370-1•Na] | 826 | 1860 | 1520 | 489 | 144 | 5.33 | 2.4 | 2.9 | 9.0 | 106.9 | 41.2 | 30.5 | 4400 | 134.5 | 32.7
CC[C@@H](C(=O)[C@@H](C)[C@@H](O)[C@H](C)[C@@H]1O[C@@H]([C@@H](CC)C(=O)O)CC[C@@H]1C)[C@H]1O[C@]2(C=C[C@@H](NC(=O)C3CCCC3)[C@]3(CC[C@@](C)([C@H]4CC[C@](O)(CC)[C@H](C)O4)O3)O2)[C@H](C)C[C@@H]1C [FLC-00455-1•Na] | 54.5 | 140 | 165 | 33 | 60.7 | 5.91 | 2.3 | 2.0 | 9.8 | 112.3 | 2.87 | 5.3 | 323 | 232.6 | 1.39
CC[C@@H](C(=O)[C@@H](C)[C@@H](O)[C@H](C)[C@@H]1O[C@@H]([C@@H](CC)C(=O)O)CC[C@@H]1C)[C@H]1O[C@]2(C=C[C@@H](NC(=O)C(=O)NC)[C@]3(CC[C@@](C)([C@H]4CC[C@](O)(CC)[C@H](C)O4)O3)O2)[C@H](C)C[C@@H]1C [FLC-00443-1•Na] | 2620 | 3970 | 6190 | 554 | 477 | 1.57 | 1.0 | 0.7 | 7.4 | 23.4 | 175 | 8.6 | 4110 | 23.3 | 176
CC[C@@H](C(=O)[C@@H](C)[C@@H](O)[C@H](C)[C@@H]1O[C@@H]([C@@H](CC)C(=O)O)CC[C@@H]1C)[C@H]1O[C@]2(C=C[C@@H](NC(=S)NC(C)C)[C@]3(CC[C@@](C)([C@H]4CC[C@](O)(CC)[C@H](C)O4)O3)O2)[C@H](C)C[C@@H]1C [FLC-00387-1] | 44.4 | 162 | 10.2 | 9.71 | 0.7 |  |  |  |  |  |  |  |  |  | 
